Columns and labels:
Assay in all cases: normalised response (% of control), CellTiter-Glo; higher = more viable cells (100 = DMSO, 0 = benzethonium chloride kill control)
Conditions in all cases: incubation time: 72 h
CAL-51 = test system: CAL-51
Procedure, shortened: (§1)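 Values are normalised signals, each belonging to one concentration of the series. Breast cancer cells (20 µl suspension) were seeded into 384-well plates with compound at 5 concentrations in 10-fold steps over a compound-specific 10,000-fold range and incubated 72 h. Readouts were CellTox Green fluorescence (485/520 nm), then CellTiter-Glo luminescence after 10 min at room temperature, with each plate set to 0.1 % DMSO as 100 and a positive kill control as 0.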

CAL-85-1 = test system: CAL-85-1
Procedure, shortened: as §1

HCC1143 = test system: HCC1143
Procedure, shortened: as §1

HCC1599 = test system: HCC1599
Procedure, shortened: as §1

HDQ-P1 = test system: HDQ-P1
Procedure, shortened: as §1

Hs578T = test system: Hs578T
Procedure, shortened: as §1

Compound | normalised response (CAL-51) | normalised response (CAL-85-1) | normalised response (HCC1143) | normalised response (HCC1599) | normalised response (HDQ-P1) | normalised response (Hs578T)
COc1ccc(S(=O)(=O)Nc2cccnc2Nc2ccc(O)cc2)cc1 [ABT-751] (10000 nM) | 25.2% | 40.9% | 55.5% | 16.5% | 70.1% | 17.6%
Cc1cc(Nc2nc(N[C@@H](C)c3ncc(F)cn3)ncc2Cl)[nH]n1 [AZD1480] (1000 nM) | 110% | 96% | 92.7% | 104% | 93.6% | 82%
CNC(=O)c1ccccc1Sc1ccc2c(/C=C/c3ccccn3)n[nH]c2c1 [Axitinib] (10000 nM) | 38.6% | 120% | 79% | 69% | 77.8% | 61.4%
CC(O)(CS(=O)(=O)c1ccc(F)cc1)C(=O)Nc1ccc(C#N)c(C(F)(F)F)c1 (configuration not stated) [Bicalutamide] (10000 nM) | 92.8% | 101% | 104% | 95.5% | 96.4% | 95.6%
CCNC(=O)CCC/C=C\C[C@@H]1[C@@H](/C=C/[C@@H](O)CCc2ccccc2)[C@H](O)C[C@@H]1O [Bimatoprost] (5500 nM) | 160% | 91.1% | 94.8% | 89.5% | 91.7% | 101%
COc1cc(Nc2c(C#N)cnc3cc(OCCCN4CCN(C)CC4)c(OC)cc23)c(Cl)cc1Cl [Bosutinib] (10000 nM) | 25% | 0.33% | 46.6% | 13.5% | 9.28% | 48.5%
Cn1cc(C2=C(c3cn(C4CCN(Cc5ccccn5)CC4)c4ccccc34)C(=O)NC2=O)c2ccccc21 [Enzastaurin] (10000 nM) | 82.1% | 85.1% | 96.5% | 78.2% | 70.1% | 91%
CC(C)(C)NC(=O)[C@H]1CC[C@H]2[C@@H]3CC[C@H]4NC(=O)C=C[C@]4(C)[C@H]3CC[C@]12C [Finasteride] (10000 nM) | 91.7% | 96.5% | 96.6% | 97% | 95.7% | 99.9%
Nc1ccn([C@@H]2O[C@H](CO)[C@@H](O)C2(F)F)c(=O)n1 [Gemcitabine] (1000 nM) | 34% | 40.5% | 38.9% | 41.4% | 82.8% | 74.9%
CC(C)C[C@H](NC(=O)[C@@H](COC(C)(C)C)NC(=O)[C@H](Cc1ccc(O)cc1)NC(=O)[C@H](CO)NC(=O)[C@H](Cc1c[nH]c2ccccc12)NC(=O)[C@H](Cc1cnc[nH]1)NC(=O)[C@@H]1CCC(=O)N1)C(=O)N[C@@H](CCCNC(=N)N)C(=O)N1CCC[C@H]1C(=O)NNC(N)=O [Goserelin] (10000 nM) | 113% | 93.8% | 101% | 97.5% | 101% | 96.5%
CC(=O)[C@]1(O)Cc2c(O)c3c(c(O)c2[C@@H](O[C@H]2C[C@H](N)[C@H](O)[C@H](C)O2)C1)C(=O)c1ccccc1C3=O [Idarubicin] (1000 nM) | 0.98% | 3.35% | 16.6% | 7.7% | 39% | 13.1%
C/C(=C\c1csc(C)n1)[C@@H]1C[C@@H]2O[C@]2(C)CCC[C@H](C)[C@H](O)[C@@H](C)C(=O)C(C)(C)[C@@H](O)CC(=O)N1 [Ixabepilone] (1000 nM) | 23.7% | 26.1% | 97.6% | 115% | 99.1% | 99%
C=CCn1c(=O)c2cnc(Nc3ccc(N4CCN(C)CC4)cc3)nc2n1-c1cccc(C(C)(C)O)n1 [MK1775] (10000 nM) | 8.21% | 11.4% | 17.5% | 4.65% | 17.4% | 22%
CO[C@@H]1[C@H](N(C)C(=O)c2ccccc2)C[C@H]2O[C@]1(C)n1c3ccccc3c3c4c(c5c6ccccc6n2c5c31)C(=O)NC4 [Midostaurin] (10000 nM) | 11.5% | 76% | 45.9% | 102% | 54.4% | 16.8%
CO[C@@]12[C@H](COC(N)=O)C3=C(C(=O)C(C)=C(N)C3=O)N1C[C@@H]1N[C@@H]12 [Mitomycin C] (10000 nM) | 5.75% | 57% | 71% | 57.4% | 84.1% | 91.1%
CCNC(=O)c1noc(-c2cc(C(C)C)c(O)cc2O)c1-c1ccc(CN2CCOCC2)cc1 [NVP-AUY922] (1000 nM) | 13.5% | 21% | 38% | 77% | 23.6% | 35.6%
CC1(C)CCC(c2ccc(Cl)cc2)=C(CN2CCN(c3ccc(C(=O)NS(=O)(=O)c4ccc(N[C@H](CCN5CCOCC5)CSc5ccccc5)c(S(=O)(=O)C(F)(F)F)c4)cc3)CC2)C1 [Navitoclax] (10000 nM) | 74.5% | 86.2% | 77.8% | 93.1% | 66.8% | 79.3%

Source: the supplement of paper PMC4862054
